Results: US12448399B2, “Cereblon-based KRAS degrading PROTACs and uses related thereto” (Arvinas Operations, Inc., priority 2023, dated 2025)

Target: T1, KRas-G12D (Homo sapiens, UniProt P01116, G12D)
T1 construct: insert the HiBiT tag onto the N-terminus of one or more of the endogenous KRas alleles; host or cells: AsPC-1 HiBiT-KRasG12D knock-in clone (one tagged allele, two untagged KRasG12D alleles)
Assay: HiBiT Degradation Assay (G12D), AsPC-1 HiBiT-KRasG12D cells, 24 hr
Type: cell-based
Conditions: for Dmax: ASPC1, AsPC-1 cells, maximum degradation observed; for DC50: AsPC-1 cells
Method in brief: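 AsPC-1 cells with CRISPR N-terminal HiBiT knock-in on one endogenous KRasG12D allele, treated 24 hr at 37° C with compound titrations in 0.5% DMSO. Lytic HiBiT luminescence normalized to DMSO, fitted to a 4-parameter model for DC50 and Dmax. Parallel alamar blue (4 hr) checked viability.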

T1 sequence (P01116 1-188 isoform P01116-2 G12D): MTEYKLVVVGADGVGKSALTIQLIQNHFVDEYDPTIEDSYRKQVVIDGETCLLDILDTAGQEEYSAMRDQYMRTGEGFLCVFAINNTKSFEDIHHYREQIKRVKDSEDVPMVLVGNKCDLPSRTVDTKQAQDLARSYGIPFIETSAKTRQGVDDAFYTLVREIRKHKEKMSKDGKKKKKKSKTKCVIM

Structure (SMILES)	Dmax [%]	DC50 [µM]
C#Cc1c(F)ccc2cc(O)cc(-c3ncc4c(N5CC6CCC(C5)N6)nc(OCC5(CN6CCC(CC7CCN(c8ccc9c(c8Cl)CN(C8CCC(=O)NC8=O)C9=O)CC7)CC6)CC5)nc4c3F)c12 (stereo not drawn) [Compound 190, 3-{4-chloro-5-[4-({1-[(1-{[(4-{3,8-diazabicyclo[3.2.1]octan-3-yl}-7-(8-ethynyl-7-fluoro-3-hydroxynaphthalen-1-yl)-8-fluoropyrido[4,3-d]pyrimidin-2-yl)oxy]methyl}cyclopropyl)methyl]piperidin-4-yl}methyl)piperidin-1-yl]-1-oxo-2,3-dihydro-1H-isoindol-2-yl}piperidine-2,6-dione]	> 70	< 5.1
CCc1c(F)ccc2cc(O)cc(-c3ncc4c(N5CC6CCC(C5)N6)nc(OC[C@@H]5C[C@@H](OC6CCN(CC7CCN(c8ccc9c(c8F)CN(C8CCC(=O)NC8=O)C9=O)CC7)CC6)CN5C)nc4c3F)c12 (stereo partly drawn) [Compound 178, 3-(5-{4-[(4-{[(3R,5S)-5-{[(4-{3,8-diazabicyclo[3.2.1]octan-3-yl}-7-(8-ethyl-7-fluoro-3-hydroxynaphthalen-1-yl)-8-fluoropyrido[4,3-d]pyrimidin-2-yl)oxy]methyl}-1-methylpyrrolidin-3-yl]oxy}piperidin-1-yl)methyl]piperidin-1-yl}-4-fluoro-1-oxo-2,3-dihydro-1H-isoindol-2-yl)piperidine-2,6-dione]	> 70	< 5.1
C#Cc1c(F)ccc2cc(O)cc(-c3ncc4c(N5CC6CCC(C5)N6)nc(OCCN5CCC6(CC5)CCN(CC5CCN(c7ccc8c(c7)n(C)c(=O)n8C7CCC(=O)NC7=O)CC5)CC6)nc4c3F)c12 (stereo not drawn) [Compound 218, 3-(5-{4-[(9-{2-[(4-{3,8-diazabicyclo[3.2.1]octan-3-yl}-7-(8-ethynyl-7-fluoro-3-hydroxynaphthalen-1-yl)-8-fluoropyrido[4,3-d]pyrimidin-2-yl)oxy]ethyl}-3,9-diazaspiro[5.5]undecan-3-yl)methyl]piperidin-1-yl}-3-methyl-2-oxo-2,3-dihydro-1H-1,3-benzodiazol-1-yl)piperidine-2,6-dione]	> 70	< 5.1
C#Cc1c(F)ccc2cc(O)cc(-c3ncc4c(N5CC6CCC(C5)N6)nc(OCCN5CCC6(CC5)CCN(CC5CCN(c7ccc8c(c7F)n(C(C)C)c(=O)n8C7CCC(=O)NC7=O)CC5)CC6)nc4c3F)c12 (stereo not drawn) [Compound 203, 3-[5-[4-[[9-[2-[4-(3,8-diazabicyclo[3.2.1]octan-3-yl)-7-(8-ethynyl-7-fluoro-3-hydroxy-1-naphthyl)-8-fluoro-pyrido[4,3-d]pyrimidin-2-yl]oxyethyl]-3,9-diazaspiro[5.5]undecan-3-yl]methyl]-1-piperidyl]-4-fluoro-3-isopropyl-2-oxo-benzimidazol-1-yl]piperidine-2,6-dione]	> 70	< 5.1
CCc1c(F)ccc2cc(O)cc(-c3ncc4c(N5CC6CCC(C5)N6)nc(OC[C@@H]5C[C@@H](OC6CCN(CC7CCN(c8ccc9c(c8)CN(C8CCC(=O)NC8=O)C9=O)CC7)CC6)CN5C)nc4c3F)c12 (stereo partly drawn) [Compound 85, 3-(5-{4-[(4-{[(3R,5S)-5-{[(4-{3,8-diazabicyclo[3.2.1]octan-3-yl}-7-(8-ethyl-7-fluoro-3-hydroxynaphthalen-1-yl)-8-fluoropyrido[4,3-d]pyrimidin-2-yl)oxy]methyl}-1-methylpyrrolidin-3-yl]oxy}piperidin-1-yl)methyl]piperidin-1-yl}-1-oxo-2,3-dihydro-1H-isoindol-2-yl)piperidine-2,6-dione]	> 70	< 5.1
C#Cc1c(F)ccc2cc(O)cc(-c3ncc4c(N5CC6CCC(C5)N6)nc(OCCN5CCC6(CC5)CCN(CC5CCN(c7ccc8c(c7F)n(C)c(=O)n8C7CCC(=O)NC7=O)CC5)CC6)nc4c3F)c12 (stereo not drawn) [Compound 197, 3-(5-{4-[(9-{2-[(4-{3,8-diazabicyclo[3.2.1]octan-3-yl}-7-(8-ethynyl-7-fluoro-3-hydroxynaphthalen-1-yl)-8-fluoropyrido[4,3-d]pyrimidin-2-yl)oxy]ethyl}-3,9-diazaspiro[5.5]undecan-3-yl)methyl]piperidin-1-yl}-4-fluoro-3-methyl-2-oxo-2,3-dihydro-1H-1,3-benzodiazol-1-yl)piperidine-2,6-dione]	> 70	< 5.1
C#Cc1c(F)ccc2cc(O)cc(-c3ncc4c(N5CC6CCC(C5)N6)nc(OCCN5CCC(CN6CCN(CC7CCN(c8ccc9c(c8)CN(C8CCC(=O)NC8=O)C9=O)CC7)CC6)CC5)nc4c3F)c12 (stereo not drawn) [Compound 111, 3-[5-[4-[[4-[[1-[2-[4-(3,8-diazabicyclo[3.2.1]octan-3-yl)-7-(8-ethynyl-7-fluoro-3-hydroxy-1-naphthyl)-8-fluoro-pyrido[4,3-d]pyrimidin-2-yl]oxyethyl]-4-piperidyl]methyl]piperazin-1-yl]methyl]-1-piperidyl]-1-oxo-isoindolin-2-yl]piperidine-2,6-dione]	> 70	< 5.1
CCc1cccc2cc(O)cc(-c3ncc4c(N5CC6CCC(C5)N6)nc(OCCN5CCC(CN6CCC7(CC6)CN(c6cccc8c6CN(C6CCC(=O)NC6=O)C8=O)C7)CC5)nc4c3F)c12 (stereo not drawn) [Compound 3]		0.25 to 1
C#Cc1c(F)ccc2cc(O)cc(-c3ncc4c(N5CC6CCC(C5)N6)nc(OC[C@@H]5CC[C@@H](CN6CCN(c7ccc8c(c7)n(C(C)C)c(=O)n8C7CCC(=O)NC7=O)CC6)N5C)nc4c3F)c12 (stereo partly drawn) [Compound 176, 3-[5-(4-{[(2S,5S)-5-{[(4-{3,8-diazabicyclo[3.2.1]octan-3-yl}-7-(8-ethynyl-7-fluoro-3-hydroxynaphthalen-1-yl)-8-fluoropyrido[4,3-d]pyrimidin-2-yl)oxy]methyl}-1-methylpyrrolidin-2-yl]methyl}piperazin-1-yl)-2-oxo-3-(propan-2-yl)-2,3-dihydro-1H-1,3-benzodiazol-1-yl]piperidine-2,6-dione]	> 70	< 5.1
C#Cc1c(F)ccc2cc(O)cc(-c3ncc4c(N5CC6CCC(C5)N6)nc(OCCN5CCC(CC6CCN(CC7CCN(c8ccc9c(c8)CN(C8(C)CCC(=O)NC8=O)C9=O)CC7)CC6)CC5)nc4c3F)c12 (stereo not drawn) [Compound 97]		> 1
CCc1cccc2cc(O)cc(-c3ncc4c(N5CC6CCC(C5)N6)nc(OCCN5CCN(c6ccc(C(=O)NC7CCC(=O)NC7=O)c(F)c6)CC5)nc4c3F)c12 (stereo not drawn) [Compound 37]		> 1
C#Cc1c(F)ccc2cccc(-c3ncc4c(N5CC6CCC(C5)N6)nc(OC[C@@]56CCCN5[C@H](CN5CCN(CC7CCN(c8ccc9c(c8F)CN(C8CCC(=O)NC8=O)C9=O)CC7)CC5)CC6)nc4c3F)c12 (stereo partly drawn) [Compound 238]	> 70	< 5.1
CCc1cccc2cc(O)cc(-c3nc(N4CC5CCC(C4)N5)c4cnc(OCCN5CCC(CC6CCN(CC7CCN(c8cccc9c8CN(C8(C)CCC(=O)NC8=O)C9=O)CC7)CC6)CC5)nc4c3F)c12 (stereo not drawn) [Compound 44]		> 1
CCc1c(F)ccc2cc(O)cc(-c3ncc4c(N5CC6CCC(C5)N6)nc(OCCN5CCC(C)(CN6CCN(CC7CCN(c8ccc9c(c8)n(C)c(=O)n9C8CCC(=O)NC8=O)CC7)CC6)CC5)nc4c3F)c12 (stereo not drawn) [Compound 180, 3-{5-[4-({4-[(1-{2-[(4-{3,8-diazabicyclo[3.2.1]octan-3-yl}-7-(8-ethyl-7-fluoro-3-hydroxynaphthalen-1-yl)-8-fluoropyrido[4,3-d]pyrimidin-2-yl)oxy]ethyl}-4-methylpiperidin-4-yl)methyl]piperazin-1-yl}methyl)piperidin-1-yl]-3-methyl-2-oxo-2,3-dihydro-1H-1,3-benzodiazol-1-yl}piperidine-2,6-dione]	> 70	< 5.1
